Target: T1, transpeptidase enzyme (PBP1b) (Escherichia coli, UniProt P02919)
T1 construct: the ponB gene encoding PBP1b is overexpressed since the strain contains a plasmid comprising a further copy of ponB under the control of its native promoter; made in house; host or cells: Escherichia coli AMA1004 ΔponA; pBS96 (membranes solubilised with 1% CHAPS and 1M NaCl; supernatant used)
Assay: Scintillation proximity assay for formation of radiolabelled cross-linked peptidoglycan (transpeptidase inhibition)
Type: biochemical
Experimental: 4 mg of Escherichia coli AMA1004 cell membranes prepared as described in WO 99/60155 were incubated with 5 ml of 100 mM ampicillin in 50 mM Tris HCl buffer pH 7.5 and 0.1 mM MgCl2 for 30 minutes at room temperature. The membranes were sedimented by centrifugation at 150,000×g for 15 minutes and then washed three times. They were finally resuspended in 1 ml of 50 mM Tris HCl buffer and 0.1 mM MgCl2. […]
The membranes of this E. coli strain were prepared as described in WO 99/60155. They were then treated with a detergent, 1% (3-[(3-cholamidopropyl)dimethylammonio]-1-propane-sulphonate (CHAPS), and 1M NaCl at a protein concentration of 5 mg/ml for 1 hour at room temperature. The mixture was then centrifuged at 150,000×g for 15 minutes in a Beckman table top ultracentrifuge and the supernatant containing PBP1b collected. The quantity of PBP1b protein used was the “soluble fraction” equivalent to 5 μg of starting membrane. […]
The microtitre plate was left for 3 to 10 hours at room temperature before being counted in the “Microbeta Trilux” counter. […]
Table 1 below enumerates the inhibitory effects of penicillin G on the transpeptidase enzyme (after subtracting the corresponding 0% reaction readings).

T1 sequence (P02919 whole entry): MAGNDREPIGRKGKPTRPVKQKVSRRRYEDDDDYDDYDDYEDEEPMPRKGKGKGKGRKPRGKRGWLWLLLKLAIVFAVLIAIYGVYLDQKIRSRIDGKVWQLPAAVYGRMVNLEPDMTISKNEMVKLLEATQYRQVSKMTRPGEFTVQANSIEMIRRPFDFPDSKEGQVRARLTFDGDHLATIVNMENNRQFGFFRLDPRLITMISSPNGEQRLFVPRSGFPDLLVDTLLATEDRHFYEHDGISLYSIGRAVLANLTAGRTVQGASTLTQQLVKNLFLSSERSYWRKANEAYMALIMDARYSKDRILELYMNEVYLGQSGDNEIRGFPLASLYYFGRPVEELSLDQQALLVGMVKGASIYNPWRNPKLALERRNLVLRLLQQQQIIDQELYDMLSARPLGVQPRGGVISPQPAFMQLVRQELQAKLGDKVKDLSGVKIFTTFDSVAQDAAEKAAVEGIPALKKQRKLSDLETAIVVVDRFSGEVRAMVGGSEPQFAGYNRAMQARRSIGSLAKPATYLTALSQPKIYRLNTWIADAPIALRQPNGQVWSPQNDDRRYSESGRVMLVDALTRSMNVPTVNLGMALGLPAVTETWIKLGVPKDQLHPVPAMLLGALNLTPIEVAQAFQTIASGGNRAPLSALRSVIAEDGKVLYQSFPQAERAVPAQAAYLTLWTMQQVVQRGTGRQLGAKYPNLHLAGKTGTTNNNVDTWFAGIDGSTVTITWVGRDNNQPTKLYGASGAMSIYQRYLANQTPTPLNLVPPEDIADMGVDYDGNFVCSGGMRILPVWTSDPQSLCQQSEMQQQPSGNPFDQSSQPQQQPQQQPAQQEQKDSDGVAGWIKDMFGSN

CC1(C)S[C@@H]2[C@H](NC(=O)Cc3ccccc3)C(=O)N2[C@H]1C(=O)O [Penicillin G, penicillin G]
Counts per minute (after subtracting the corresponding 0% reaction readings, PBP1b extract from E. coli AMA1004 ΔponA, pBS96, ampicillin-treated AMA1004 membranes, 37° C. for 15 minutes): 319 | % Inhibition (inhibitory effect on the transpeptidase enzyme, relative to wells with no test compound (100% reaction controls), test concentration not given): 94%

Source: patent US7419788B2, “Method for screening anti-bacterial agents” (priority 2001, dated 2008)
